From article PMC12802961 (Journal of Antimicrobial Chemotherapy, 2025)
Marks after values point to notes of the source that are not given here.

Assays:
P. aeruginosa 106 = experiment: Checkerboard broth microdilution MIC of cefepime alone and with taniborbactam; type: cell-based, Pseudomonas aeruginosa
Excerpt: (§1) Four previously well-characterized cefepime-resistant isolates, namely one ESBL-producing E. coli, one ESBL-producing K. pneumoniae and two P. aeruginosa (one VIM- and one AmpC constitutively -producing), were used.

P. aeruginosa 132 = experiment: as above; type: cell-based, Pseudomonas aeruginosa
Excerpt: as §1

[1] = system: two ESBL-producing Enterobacterales and one AmpC- and one VIM-producing P. aeruginosa isolates; experiment: Checkerboard broth microdilution MIC, all four strains together; type: cell-based
Excerpt: as §1

K. pneumoniae 59 = experiment: Neutropenic murine thigh infection model; type: in vivo, Klebsiella pneumoniae
Method: All dosing regimens were performed in at least two animals per dosing regimen.
At t = 0 h, 2 h after infection, two mice were humanely euthanized to determine the initial number of cfu/thigh just before treatment. […] Subsequently, thighs were homogenized using the Ultra-Turrax homogenizer (IKA Labortechnik, Germany). For each thigh 10-fold dilution series were prepared and 3 × 10 µL per dilution were plated (Chromagar, bioMérieux, NL). The following day, colonies were counted and the number of cfu/thigh was calculated.
Free drug concentrations were used in all calculations.

[2] = system: β-lactamase–producing Enterobacterales and Pseudomonas aeruginosa; experiment: Neutropenic murine thigh infection model, all isolates together; type: in vivo
Method: (§2) […]. […] […]. All dosing regimens were performed in at least two animals per dosing regimen.
(§3) At t = 0 h, 2 h after infection, two mice were humanely euthanized to determine the initial number of cfu/thigh just before treatment. All other animals were euthanized at t = 24 h unless the welfare of the animals indicated earlier termination, following animal welfare regulations. Thighs were taken and moved to a pre-cooled 10 mL plastic tube (Transport Tube, Omnilabo, NL) containing 2 mL PBS (NaCl 8.00 g/L, Na2HPO4 * 2H2O 1.44 g/L, KH2PO4 0.26 g/L, pH 7.2–7.4). Subsequently, thighs were homogenized using the Ultra-Turrax homogenizer (IKA Labortechnik, Germany). For each thigh 10-fold dilution series were prepared and 3 × 10 µL per dilution were plated (Chromagar, bioMérieux, NL). The following day, colonies were counted and the number of cfu/thigh was calculated. The drug effect was then determined as the difference between the log10cfu/thigh values at t = 24 h and t = 0 h (mean value of two mice) expressed as Δlog10cfu, i.e. positive result for growth, zero for static effect and negative for reduction of inoculum (killing).
(§4) . […] Free drug concentrations were used in all calculations. […]

KPC K. pneumoniae = KPC K. pneumoniae strain of previous animal study, cited from earlier work
KPC P. aeruginosa = KPC P. aeruginosa strain of previous animal study, cited from earlier work
[3] = human simulated regimen of cefepime 2 g q8h as 2 h infusion; cited from earlier work
[4] = system: ESBL-producing Enterobacterales; experiment: Neutropenic murine thigh infection model, Enterobacterales together; type: in vivo; settings: Ct where in vitro reversal of cefepime resistance was found
Method: as §2, §3, §4

P. aeruginosa isolates = experiment: Neutropenic murine thigh infection model, P. aeruginosa isolates together; type: in vivo, Pseudomonas aeruginosa; settings: Ct where in vitro reversal of cefepime resistance was found
Method: as §2, §3, §4

[5] = in vivo
[6] = system: AmpC constitutively-producing P. aeruginosa; settings: cited from earlier work
[7] = system: MBL- and ESBL-producing isolates; settings: cited from earlier work
[8] = human, in vivo; cited from earlier work
[9] = Ct = taniborbactam concentration where reversal of cefepime resistance was found in vitro

## CO/N=C(\C(=O)N[C@@H]1C(=O)N2C(C(=O)[O-])=C(C[N+]3(C)CCCC3)CS[C@H]12)c1csc(N)n1 [cefepime, Cefepime]
P. aeruginosa 106; P. aeruginosa 106, +taniborbactam 0.03 mg/L
  Cefepime MIC at taniborbactam 0.03 mg/L: 32 µg/mL
P. aeruginosa 106; P. aeruginosa 106, +taniborbactam 0.06 mg/L
  Cefepime MIC at taniborbactam 0.06 mg/L: 32 µg/mL
P. aeruginosa 106; P. aeruginosa 106, +taniborbactam 0.125 mg/L
  Cefepime MIC at taniborbactam 0.125 mg/L: 32 µg/mL
P. aeruginosa 106; P. aeruginosa 106, +taniborbactam 0.25 mg/L
  Cefepime MIC at taniborbactam 0.25 mg/L: 16 µg/mL
P. aeruginosa 106; P. aeruginosa 106, +taniborbactam 0.5 mg/L
  Cefepime MIC at taniborbactam 0.5 mg/L: 16 µg/mL
P. aeruginosa 106; P. aeruginosa 106, +taniborbactam 1 mg/L
  Cefepime MIC at taniborbactam 1 mg/L: 16 µg/mL
P. aeruginosa 106; P. aeruginosa 106, +taniborbactam 2 mg/L
  Cefepime MIC at taniborbactam 2 mg/L: 8 µg/mL
P. aeruginosa 106; P. aeruginosa 106, +taniborbactam 4 mg/L
  Cefepime MIC at taniborbactam 4 mg/L (potMIC): 4 µg/mL
P. aeruginosa 106; Pseudomonas aeruginosa, 106, read-out: Cefepime MIC (mg/L) alone
  MIC: 32 mg/L
P. aeruginosa 132; P. aeruginosa 132, +taniborbactam 0.03 mg/L
  Cefepime MIC at taniborbactam 0.03 mg/L: 16 µg/mL
P. aeruginosa 132; P. aeruginosa 132, +taniborbactam 0.06 mg/L
  Cefepime MIC at taniborbactam 0.06 mg/L: 16 µg/mL
P. aeruginosa 132; P. aeruginosa 132, +taniborbactam 0.125 mg/L
  Cefepime MIC at taniborbactam 0.125 mg/L: 8 µg/mL
P. aeruginosa 132; P. aeruginosa 132, +taniborbactam 0.25 mg/L
  Cefepime MIC at taniborbactam 0.25 mg/L: 4 µg/mL
P. aeruginosa 132; P. aeruginosa 132, +taniborbactam 0.5 mg/L
  Cefepime MIC at taniborbactam 0.5 mg/L: 2 µg/mL
P. aeruginosa 132; P. aeruginosa 132, +taniborbactam 1 mg/L
  Cefepime MIC at taniborbactam 1 mg/L: 1 µg/mL
P. aeruginosa 132; P. aeruginosa 132, +taniborbactam 2 mg/L
  Cefepime MIC at taniborbactam 2 mg/L: 1 µg/mL
P. aeruginosa 132; P. aeruginosa 132, +taniborbactam 4 mg/L
  Cefepime MIC at taniborbactam 4 mg/L (potMIC): 1 µg/mL
P. aeruginosa 132; Pseudomonas aeruginosa, 132, read-out: Cefepime MIC (mg/L) alone
  MIC: 16 mg/L
[1]; +taniborbactam 4 mg/L
  Cefepime MIC in the presence of 4 mg/L taniborbactam, all strains: 0.06 to 4 µg/mL
[1]; Pseudomonas aeruginosa, read-out: Cefepime MIC, all strains, cefepime alone
  MIC: 16 to 256 µg/mL
[1]; cefepime alone
  Cefepime MIC, all strains: > 8 µg/mL
K. pneumoniae 59; cefepime monotherapy
  Stasis: q2h dose: 117.8 mg/kg
K. pneumoniae 59; cefepime monotherapy q2h
  Stasis: %ƒT > MIC: 0.0%
K. pneumoniae 59; cefepime monotherapy q2h, belongs to extrapolated dose
  1 log10 kill: %ƒT > MIC: 15.9%
K. pneumoniae 59; cefepime monotherapy q2h, extrapolated
  1 log10 kill: Total daily dose, mg/kg: (4371.3) mg/kg
K. pneumoniae 59; cefepime monotherapy q2h s.c. 24 h
  Stasis: Total daily dose: 1413.4 mg/kg
K. pneumoniae 59; cefepime monotherapy, extrapolated
  1 log10 kill: q2h dose, mg/kg: (364.0) mg/kg
K. pneumoniae 59; cefepime q2h 4 mg/kg, potMIC 0.5 mg/L (with 4 mg/L taniborbactam)
  Cefepime %fT > potMIC: 69.30%
[2]; against Enterobacterales and AmpC-producing P. aeruginosa
  Effect of cefepime alone: marginally reached stasis
KPC K. pneumoniae
  unpotentiated cefepime MIC: > 512 µg/mL
KPC K. pneumoniae; with taniborbactam
  potentiated cefepime MIC: 2 µg/mL
KPC P. aeruginosa
  unpotentiated cefepime MIC: > 512 µg/mL
KPC P. aeruginosa; with taniborbactam
  potentiated cefepime MIC: 4 µg/mL
[3]
  fAUC0-24: ~787.8 µg·h/mL

## NCCN[C@H]1CC[C@H](CC(=O)N[C@H]2Cc3cccc(C(=O)O)c3OB2O)CC1 [taniborbactam, Taniborbactam]
P. aeruginosa 106; AmpC constitutively-producing P. aeruginosa, in vitro checkerboard
  Taniborbactam concentration at which reversal of phenotypic resistance to cefepime was observed: 2 mg/L
P. aeruginosa 132; VIM-producing P. aeruginosa, in vitro checkerboard
  Taniborbactam concentration at which reversal of phenotypic resistance to cefepime was observed: 0.125 mg/L
K. pneumoniae 59; + cefepime q2h 4 mg/kg, Ct 0.015 mg/L
  Stasis: Taniborbactam %ƒT > Ct 0.015 mg/L: 100%
K. pneumoniae 59; + cefepime q2h 4 mg/kg, Ct 0.015 mg/L, at extrapolated dose
  1 log kill: Taniborbactam %ƒT > Ct 0.015 mg/L: 100%
K. pneumoniae 59; + cefepime q2h 4 mg/kg, Ct 0.03 mg/L
  Stasis: Taniborbactam %ƒT > Ct 0.03 mg/L: 100%
K. pneumoniae 59; + cefepime q2h 4 mg/kg, Ct 0.03 mg/L, at extrapolated dose
  1 log kill: Taniborbactam %ƒT > Ct 0.03 mg/L: 100%
K. pneumoniae 59; + cefepime q2h 4 mg/kg, Ct 0.06 mg/L
  Stasis: Taniborbactam %ƒT > Ct 0.06 mg/L: 86.2%
K. pneumoniae 59; + cefepime q2h 4 mg/kg, Ct 0.06 mg/L, at extrapolated dose
  1 log kill: Taniborbactam %ƒT > Ct 0.06 mg/L: 100%
K. pneumoniae 59; + cefepime q2h 4 mg/kg, Ct 0.125 mg/L
  Stasis: Taniborbactam %ƒT > Ct 0.125 mg/L: 69.3%
K. pneumoniae 59; + cefepime q2h 4 mg/kg, Ct 0.125 mg/L, at extrapolated dose
  1 log kill: Taniborbactam %ƒT > Ct 0.125 mg/L: 100%
K. pneumoniae 59; + cefepime q2h 4 mg/kg, Ct 0.25 mg/L
  Stasis: Taniborbactam %ƒT > Ct 0.25 mg/L: 52.4%
K. pneumoniae 59; + cefepime q2h 4 mg/kg, Ct 0.25 mg/L, at extrapolated dose
  1 log kill: Taniborbactam %ƒT > Ct 0.25 mg/L: 100%
K. pneumoniae 59; + cefepime q2h 4 mg/kg, Ct 0.5 mg/L
  Stasis: Taniborbactam %ƒT > Ct 0.5 mg/L: 35.5%
K. pneumoniae 59; + cefepime q2h 4 mg/kg, Ct 0.5 mg/L, at extrapolated dose
  1 log kill: Taniborbactam %ƒT > Ct 0.5 mg/L: 100%
K. pneumoniae 59; + cefepime q2h 4 mg/kg, Ct 1 mg/L
  Stasis: Taniborbactam %ƒT > Ct 1 mg/L: 18.6%
K. pneumoniae 59; + cefepime q2h 4 mg/kg, Ct 1 mg/L, at extrapolated dose
  1 log kill: Taniborbactam %ƒT > Ct 1 mg/L: 99.01%
K. pneumoniae 59; + cefepime q2h 4 mg/kg, Ct 2 mg/L
  Stasis: Taniborbactam %ƒT > Ct 2 mg/L: 0%
K. pneumoniae 59; + cefepime q2h 4 mg/kg, Ct 2 mg/L, at extrapolated dose
  1 log kill: Taniborbactam %ƒT > Ct 2 mg/L: 83.25%
K. pneumoniae 59; + cefepime q2h 4 mg/kg, Ct 4 mg/L
  Stasis: Taniborbactam %ƒT > Ct 4 mg/L: 0%
K. pneumoniae 59; + cefepime q2h 4 mg/kg, Ct 4 mg/L, at extrapolated dose
  1 log kill: Taniborbactam %ƒT > Ct 4 mg/L: 66.35%
K. pneumoniae 59; taniborbactam q2h + cefepime q2h 4 mg/kg
  Stasis: Taniborbactam total daily dose: 24.00 mg/kg
K. pneumoniae 59; taniborbactam q2h + cefepime q2h 4 mg/kg, extrapolated dose, effect not reached within tested doses
  1 log kill: Taniborbactam total daily dose, mg/kg: (680)^b mg/kg
[2]; [9]
  %fT > Ct of taniborbactam associated with 1 log10 kill: 60%–100%
  %fT > Ct of taniborbactam associated with stasis: 40%–50%
[2]; all isolates, combined with cefepime
  Effect of taniborbactam on cefepime's static effect: restored cefepime’s static effect against all isolates
[2]; all isolates, with marginally ineffective doses of cefepime
  Taniborbactam TDDs at which cefepime regained its static effect: 3.2 to 105 mg/kg
[2]; all strains except K. pneumoniae
  Taniborbactam TDDs at which cefepime regained its 1 log10 kill effect: 26–293 mg/kg
[2]; taniborbactam dose fractionation with cefepime q2h
  q2h regimens more effective than q8h regimens: > 10 fold
[4]
  %fT > Ct for 1 log kill: 100%
  %fT > Ct for stasis: ~50%
P. aeruginosa isolates
  %fT > Ct for 1 log kill: ~60%
  %fT > Ct for stasis: ~40%
[5]
  fT > Ct 8 mg/L: 100%
[6]
  Reduction of cefepime MICs (fold dilution): 2 fold
[7]
  Cefepime MIC reduction: ≥ 2 fold
[8]
  half-life: 10 h
